According to patent US10166289B2, “Compositions including beta-glucans and method of use” (BIOTHERA, INC., priority 2011, dated 2019):

Columns and labels:
[1] = system: human neutrophils, monocytes, B-cells, and monocyte-derived dendritic cells; experiment: Binding of soluble β-glucan to immune cells, flow cytometry with glucan specific Ab BFD IV; type: cell-based; settings: for binding to immune cells: human neutrophils, monocytes, monocyte-derived dendritic cells
Procedure: Monocyte-derived dendritic cells (MoDCs) were prepared from blood obtained from healthy volunteers as described in Peters et al. (Advances in Experimental Medicine and Biology; 329:275-280; 1993). At day 7, the MoDCs were resuspended in RPMI 1640 supplemented with 10% human serum (Sigma-Aldrich, St. Louis, Mo.). PBMCs were obtained from healthy volunteers and similarly resuspended in RPMI 1640 supplemented with 10% human serum. The MoDCs and PBMCs were treated with vehicle alone or with IMPRIME (Biothera, Eagan, Minn.) at 100 μg/mL, 200 μg/mL, or 400 μg/mL for two hours. Binding of IMPRIME was assessed by flow cytometric analysis with a glucan specific Ab BFD IV (U.S. Pat. No. 6,084,092).

[2] = system: monocytes (CD14+) in PBMCs; experiment: Modulation of TLR 4 agonist LPS-induced co-stimulatory marker CD40 expression by monocytes (FACS); type: cell-based, human
Procedure: PBMCs obtained from healthy volunteers were treated with 25 ng/mL LPS (InvivoGen, San Diego, Calif.) either concurrently with noted doses of IMPRIME PGG (Biothera, Eagan, Minn.) or after cells were pretreated overnight with IMPRIME PGG. The cells were cultured over five days in media containing 10% fresh human serum and then stained with an anti-CD14 antibody (BioLegend, Inc., San Diego, Calif.) to identify the monocyte subset in the PBMC mixture and an anti-CD40 antibody (BioLegend, Inc., San Diego, Calif.) to evaluate CD40 expression by FACS analysis (BD Biosciences, San Jose, Calif.).

B cells (CD19+) in PBMCs [3] = experiment: Modulation of TLR 9 agonist CpG 2006-induced B cell proliferation (CFSE dilution, FACS); type: cell-based; settings: 100 nM CpG 2006 with 50 μg/mL IMPRIME PGG, five days, 10% human serum
Procedure: (§1) TLR activation of B cells induces cellular proliferation that can be measured by a reduction in the staining intensity of the intracellular dye, carboxyfluorescein succinimidyl ester (CFSE, Invitrogen, Life Technologies Corp., Carlsbad, Calif.). The principle behind this technique is that as a cell divides the CFSE dye is diluted in half between the daughter cells after each division.
(§2) PBMCs obtained from healthy volunteers were treated with 100 nM CpG 2006 (InvivoGen, San Diego, Calif.) in the presence or absence of 50 μg/mL IMPRIME PGG (Biothera, Eagan, Minn.) and cultured over five days in media containing 10% fresh human serum (Sigma-Aldrich, St. Louis, Mo.). The cells were stained with an anti-CD19 antibody (BioLegend, Inc., San Diego, Calif.) to identify the B cell subset in the PBMC mixture and intensity of CFSE staining was measured my FACS analysis (BD Biosciences, San Jose, Calif.).

[4] = system: systemic pro-inflammatory cytokines; experiment: Induction of systemic pro-inflammatory cytokines
B cells (CD19+) in PBMCs [5] = experiment: Modulation of TLR 7/8 agonist CL097-induced B cell proliferation (CFSE dilution, FACS); type: cell-based; settings: 2 μM CL097 with 50 μg/mL IMPRIME PGG, five days, 10% human serum
Procedure: as §1
as §2, with “2 μM CL097” for “100 nM CpG 2006”

Substance	binding to immune cells [1]	CD40 expression effect with pre-incubation ([2]; PBMCs pre-incubated overnight with IMPRIME PGG before 25 ng/mL LPS)	CD40 expression compared to treating the PBMCs with only the TLR agonist ([2]; PBMCs, 25 ng/mL LPS concurrently with IMPRIME PGG, five days)	B cell proliferation compared to PBMCs treated with only the TLR agonist (B cells (CD19+) in PBMCs [3])	induction of systemic pro-inflammatory cytokines [4]	B cell proliferation compared to PBMCs treated with only the TLR agonist (B cells (CD19+) in PBMCs [5])	receptors through which immune cell subsets are bound ([1]; neutrophils and monocytes)
laminarin [reference compound]	can bind						
β(1,6)-[poly-1,3)-D-glucopyranosyl]-poly-β(1,3)-D-glucopyranose [IMPRIME PGG]	can bind	magnified	an increase in CD40 expression	increases B cell proliferation	do not appear to induce systemic pro-inflammatory cytokines	increases B cell proliferation	through complement binding receptors (CR2 on B-cells; CR3 on neutrophils and monocytes), not a TLR
